Test results: patent US10966978B2, “Dose and regimen for HDM2-p53 interaction inhibitors” (Novartis AG, priority 2016, dated 2021)
Values after ≈ are worked out from the molar mass of the structure shown. Like-named read-outs stand apart in the source and are kept apart here. Marks after values point to notes of the source that are not given here.

How the values were obtained:
[1] = tested on: advanced TP53 wild-type (WT) leukemias (AML, ALL); format: in vivo, human
Excerpt: Tables 5 and 6 and FIG. 6 provide efficacy information for dosing regimen 1B in comparison to other regimens.

[2] = tested on: SJSA-1 cell line; test: Cellular activity in SJSA-1 cell line; format: cell-based; settings: Homo sapiens
[3] = Compartmental PK modeling of average concentration during cycle 1, patients with hematological tumors; format: in vivo, human; settings: all patients with measured PK, four regimens
Protocol: Pharmacokinetic data have been evaluated throughout the course of the clinical study. […] Furthermore, an integrated analysis of all available HDM201 concentrations was conducted using a population approach. The PK of HDM201 was best described by a 1-compartment PK model with a delayed zero- and first-order absorption process, and a linear clearance. Body weight was identified as a statistically significant covariate on apparent central volume of distribution (Vc/F), in which Vc/F increased with increasing body weight.
Compartmental PK modeling was used to estimate the individual average concentration during cycle 1 for patients with hematological tumors treated following the four different (FIG. 7). For all patients with measured PK, the estimated average drug concentrations during cycle 1 were above the most conservative average tumor stasis concentration of about 41 ng/mL per cycle determined from PKPD modeling of preclinical data (human SJSA-1 xenograft rat model).

[4] = AML CR patient, 1A 250 mg, March 2017
[5] = AML CR patient, 1A 400 mg, March 2017
[6] = AML CR patient, 2C 45 mg, March 2017
[7] = AML CRi patient, 1B 150 mg, March 2017
[8] = CR, Reg 1A 250 mg, person, September 2017
[9] = CR, Reg 1A 400 mg, Male/71, September 2017
[10] = CR, Reg 1B 120 mg, Male/67, September 2017
[11] = CR, Reg 2C 45 mg, Male/76, September 2017
[12] = CR, Reg 2C 45 mg, person, September 2017
[13] = CRi, Reg 1A 250 mg, person, September 2017
[14] = CRi, Reg 1B 150 mg, person, September 2017
[15] = CRi, Reg 2C 45 mg, Male/70, September 2017
[16] = CRi, Reg 2C 45 mg, Male/79, September 2017
[17] = CRi, Reg 2C 45 mg, person one, September 2017
[18] = CRi, Reg 2C 45 mg, person three, September 2017
[19] = Dose escalation, Regimen 2C 45 mg (8 patients), September 2017
[20] = Dose expansion, Regimen 2C 45 mg (17 patients), September 2017
[21] = Regimen 1A (n = 15), March 2017

COc1ncc(-c2nc3c(n2C(C)C)[C@H](c2ccc(Cl)cc2)N(c2cc(Cl)cn(C)c2=O)C3=O)c(OC)n1 [HDM201, (S)-5-(5-Chloro-1-methyl-2-oxo-1,2-dihydro-pyridin-3-yl)-6-(4-chloro-phenyl)-2-(2,4-dimethoxy-pyrimidin-5-yl)-1-isopropyl-5,6-dihydro-1H-pyrrolo[3,4-d]imidazol-4-one]
Count recovery time from C1D1 [1, 4]: 48 days | Duration of CR/CRi [1, 4]: 50 days | Time to CR/CRi [1, 4]: 7 weeks | Count recovery time from C1D1 [1, 5]: 40 days | Duration of CR/CRi [1, 5]: 23 days | Time to CR/CRi [1, 5]: 6 weeks | Count recovery time from C1D1 [1, 6]: 32 days | Duration of CR/CRi [1, 6]: 152 days | Time to CR/CRi [1, 6]: 5 weeks | Duration of CR/CRi [1, 7]: 51 days | Time to CR/CRi [1, 7]: 11 weeks | Duration of CR/CRi ([1]; AML CRi patient, 2C 45 mg, donor five, March 2017, patient withdrew consent while on CRi): 1* days | Duration of CR/CRi ([1]; AML CRi patient, 2C 45 mg, donor two, March 2017, patient ongoing at data cut off): 1^† days | CR/CRi results, number of patients ([1]; AML patients, Regimen 1B, September 2017): The already observed 2 CR/CRi results out of the small number of patients treated so far demonstrate the strong antitumor activity of the HDM201 in AML patients when dosed according to Regimen 1B. | Count recovery time from C1D1 [1, 8]: 48 days | Duration of CR/CRi [1, 8]: 50 days | Time to CR/CRI [1, 8]: 7 weeks | Count recovery time from C1D1 [1, 9]: 40 days | Duration of CR/CRi [1, 9]: 23 days | Time to CR/CRI [1, 9]: 6 weeks | Count recovery time from C1D1 [1, 10]: 28 days | Duration of CR/CRi [1, 10]: 45 days | Time to CR/CRI [1, 10]: 4 weeks | Count recovery time from C1D1 [1, 11]: 32 days | Duration of CR/CRi [1, 11]: 152 days | Time to CR/CRI [1, 11]: 5 weeks | Count recovery time from C1D1 [1, 12]: 30 days | Duration of CR/CRi [1, 12]: 41 days | Time to CR/CRI [1, 12]: 4 weeks | Duration of CR/CRi [1, 13]: 67 days | Time to CR/CRI [1, 13]: 3 weeks | Duration of CR/CRi [1, 14]: 51 days | Time to CR/CRI [1, 14]: 11 weeks | Duration of CR/CRi [1, 15]: 1 days | Time to CR/CRI [1, 15]: 12 weeks | Duration of CR/CRi [1, 16]: 62 days | Time to CR/CRI [1, 16]: 4 weeks | Duration of CR/CRi [1, 17]: 105 days | Time to CR/CRI [1, 17]: 4 weeks | Duration of CR/CRi [1, 18]: 40 days | Time to CR/CRI [1, 18]: 7 weeks | CR, number of patients ([1]; Dose escalation, Regimen 1A 250 mg (3 patients), September 2017): 250 mg (3): 1 CR | CR, number of patients ([1]; Dose escalation, Regimen 1A 400 mg (9 patients), September 2017): 400 mg (9): 1 CR | CR, number of patients ([1]; Dose escalation, Regimen 1B 120 mg (6 patients), September 2017): 120 mg (6): 1 CR | CRi, number of patients ([1]; Dose escalation, Regimen 1B 150 mg (6 patients), September 2017): 150 mg (6): 1 CRi | CR, number of patients [1, 19]: 1 | CRi, number of patients [1, 19]: 3 | CRi, number of patients ([1]; Dose expansion, Regimen 1A 250 mg, 6 pts, September 2017): 1 CRi | CR, number of patients [1, 20]: 1 CR, 1CRi | CRi, number of patients [1, 20]: 1 CR, 1CRi | BOR: CR [1, 21]: 2 (13) n (%) | BOR: CRi [1, 21]: 0 (0) n (%) | ORR (CR + CRi + PR) [1, 21]: 2 (13) n (%) | BOR: CR ([1]; Regimen 1B (n = 6), March 2017): 0 (0) n (%) | BOR: CRi ([1]; Regimen 1B (n = 6), March 2017): 1 (17) n (%) | ORR (CR + CRi + PR) ([1]; Regimen 1B (n = 6), March 2017): 1 (17) n (%) | BOR: CR ([1]; Regimen 2A (n = 7), March 2017): 0 (0) n (%) | BOR: CRi ([1]; Regimen 2A (n = 7), March 2017): 0 (0) n (%) | ORR (CR + CRi + PR) ([1]; Regimen 2A (n = 7), March 2017): 0 (0) n (%) | BOR: CR ([1]; Regimen 2C (n = 7), March 2017): 1 (14) n (%) | BOR: CRi ([1]; Regimen 2C (n = 7), March 2017): 3 (43) n (%) | ORR (CR + CRi + PR) ([1]; Regimen 2C (n = 7), March 2017): 4 (57) n (%) | BOR: CR ([1]; Total (N = 35), March 2017): 3 (9) n (%) | BOR: CRi ([1]; Total (N = 35), March 2017): 4 (11) n (%) | ORR (CR + CRi + PR) ([1]; Total (N = 35), March 2017): 7 (20) n (%) | patients with CRi ([1]; regimen 1B, hematological tumors): One patient | IC50 [2]: 0.0294 µg/mL (≈ 0.0529 µM) | estimated average concentration during cycle 1 relative to tumor stasis concentration (about 41 ng/mL) [3]: above
